Measured values taken from patent publication US9249132B2, “Substituted bicyclic aromatic compounds as S-nitrosoglutathione reductase inhibitors” (Nivalis Therapeutics, Inc., priority 2010, dated 2016).

test system: dextran sodium sulfate (DSS)-induced IBD; test: Acute prophylactic model of DSS-induced IBD; format: in vivo, mouse; conditions: acute DSS-induced IBD
Excerpt: Acute and chronic models of dextran sodium sulfate (DSS)-induced IBD in mice were used to explore efficacy of GSNORi against this disease. Acute and chronic DSS-induced IBD are widely used and well characterized models that induce pathological changes in the colon similar to those observed in the human disease. In these models and in human disease, epithelial cells within the crypts of the colon are disrupted, leading to dysfunction of the epithelial barrier and the ensuing tissue inflammation, edema, and ulceration. GSNORi therapy may benefit IBD by restoring s-nitrosoglutathione (GSNO) levels, and thus prevent or reverse the epithelial barrier dysfunction. Experimental IBD was induced by administration of DSS in the drinking water of male C57B1/6 mice (N=8 to 10 mice per group) for 6 consecutive days. GSNORi was dosed orally at doses of 0.1 to 10 mg/kg/day for 10 days starting two days prior to and continuing two days post DSS exposure. Two days post DSS exposure, the effect of GSNORi was assessed in a blinded fashion via endoscopy and histopathology using a five point scale ranging from a score=0 (normal tissue) through a score=4 (ulcerative tissue damage and marked pathological changes). Levels of circulating cytokines involved in inflammatory pathways were also assessed. The effect of GSNORi was compared to vehicle treated controls. The corticosteroid, prednisolone, was used as the positive control in this study and was administered daily at 3 mg/kg/day via oral dosing. Naïve mice (N=5) were also assessed as a normal tissue control.

Row | SMILES | colon injury (in words)
1 | O=C(O)c1ccc(-c2ccc3cc(O)ccc3c2)c(F)c1 [Example 2, 3-fluoro-4-(6-hydroxynaphthalen-2-yl)benzoic acid] | attenuated colon injury

same assay, conditions: acute model; oral 10 mg/kg/day for 10 consecutive days, prophylactic dosing regimen

Row | SMILES | decrease of percent of mice presenting with severe colon injury scores via histopathology, of vehicle control [%]
2 | O=C(O)c1ccc(-c2ccc3cc(O)ccc3c2)c(F)c1 [Example 2, 3-fluoro-4-(6-hydroxynaphthalen-2-yl)benzoic acid] | 26

same assay, conditions: acute model; oral 10 mg/kg/day for 10 days; p<0.05

Row | SMILES | decrease of percent of mice presenting with severe endoscopy scores, of vehicle control [%]
3 | O=C(O)c1ccc(-c2ccc3cc(O)ccc3c2)c(F)c1 [Example 2, 3-fluoro-4-(6-hydroxynaphthalen-2-yl)benzoic acid] | 58

test system: not listed separately; test: Mouse pharmacokinetic (PK) study; format: in vivo; conditions: plasma, male BALB/c mice, PO 10 mg/kg, IV 2 mg/kg
Excerpt: The mouse was used to determine the pharmacokinetics of compounds of the invention. This species is widely used to assess the bioavailability of compounds by administering both oral (PO) and intravenous (IV) test articles. Efficacy of the compounds of the invention was compared by assessing plasma exposure in male BALB/c mice either via IV or PO administration at the times of peak activity.
Compounds of the invention were reconstituted in a phosphate buffered saline (PBS)/10% Solutol (HS 15) clear solution resulting in a concentration of 0.2 mg/mL and administered to mice (2 mg/kg) as a single IV dose. Animals were dosed via the lateral tail vein. […] The plasma was transferred into labeled polypropylene tubes and frozen at −70° C. until analyzed by LC/MS/MS.
The compounds of the invention were reconstituted in 40% Propylene Glycol/40% Propylene Carbonate/20% of a 5% Sucrose clear solution resulting in a concentration of 2 mg/mL and administered to mice (10 mg/kg) as a single oral dose via gavage. […] The plasma was transferred into labeled polypropylene tubes and frozen at −70° C. until analyzed by LC/MS/MS.
Plasma samples at each timepoint were analyzed using a LC-MS/MS with a lower limit of quantification (LLOQ) of 1 ng/mL. […]
In addition to the above PK parameters, bioavailability (% F) was calculated.

Row | SMILES | bioavailability [%]
4 | O=C(O)c1ccc(-c2ccc3cc(O)ccc3c2)c(F)c1 [Example 2, 3-fluoro-4-(6-hydroxynaphthalen-2-yl)benzoic acid] | > 40

target: T1, GSNOR (Homo sapiens, UniProt P11766); test: GSNOR assay (inhibition of GSNOR activity, change in 340 nm absorbance); format: biochemical; conditions: 100 mM NaPO4 pH 7.4, 0.240 mM GSNO, 0.300 mM NADH, 0.5 μg/mL GSNO Reductase, 1% DMSO, 25° C.
T1 construct: made in house; host or cells: E. coli
Description: Various compounds were tested in vitro for their ability to inhibit GSNOR activity.
GSNOR expression and purification is described in Biochemistry 2000, 39, 10720-10729.
GSNOR Fermentation: Pre-cultures were grown from stabs of a GSNOR glycerol stock in 2XYT media containing 100 ug/ml ampicillin after an overnight incubation at 37° C. Cells were then added to fresh 2XYT (4 L) containing ampicillin and grown to an OD (A600) of 0.6-0.9 at 37° C. before induction. GSNOR expression was induced with 0.1% arabinose in an overnight incubation at 20° C.
GSNOR Purification: E. coli cell paste was lysed by nitrogen cavitation and the clarified lysate purified by Ni affinity chromatography on an AKTA FPLC (Amersham Pharmacia). The column was eluted in 20 mM Tris pH 8.0/250 mM NaCl with a 0-500 mM imidazole gradient. Eluted GSNOR fractions containing the Smt-GSNOR fusion were digested overnight with Ulp-1 at 4° C. to remove the affinity tag then re-run on the Ni column under the same conditions. GSNOR was recovered in the flowthrough fraction and for crystallography is further purified by Q-Sepharose and Heparin flowthrough chromatography in 20 mM Tris pH 8.0, 1 mM DTT, 10 uM ZnSO4.
GSNOR Assay: GSNO and enzyme/NADH Solutions are made up fresh each day. The solutions are filtered and allowed to warm to room temperature. GSNO solution: 100 mM NaPO4 (pH 7.4), 0.480 mM GSNO. 396 μL of GSNO Solution is added to a cuvette followed by 8 μL of test compound in DMSO (or DMSO only for full reaction control) and mixed with the pipette tip. Compounds to be tested are made up at a stock concentration of 10 mM in 100% DMSO. 2 fold serial dilutions are done in 100% DMSO. 8 μL of each dilution are added to an assay so that the final concentration of DMSO in the assay is 1%. The concentrations of compounds tested range from 100 to 0.003 μM. Enzyme/NADH solution: 100 mM NaPO4 (pH 7.4), 0.600 mM NADH, 1.0 μg/mL GSNO Reductase. 396 μL of the Enzyme/NADH solution is added to the cuvette to start the reaction. The cuvette is placed in the Cary 3E UV/Visible Spectrophotometer and the change in 340 nm absorbance/min at 25° C. is recorded for 3 minutes. The assays are done in triplicate for each compound concentration. IC50's for each compound are calculated using the standard curve analysis in the Enzyme Kinetics Module of SigmaPlot.
Final assay conditions: 100 mM NaPO4, pH 7.4, 0.240 mM GSNO, 0.300 mM NADH, 0.5 μg/mL GSNO Reductase, and 1% DMSO. Final volume: 800 μL/cuvette.

T1 sequence (P11766 whole entry): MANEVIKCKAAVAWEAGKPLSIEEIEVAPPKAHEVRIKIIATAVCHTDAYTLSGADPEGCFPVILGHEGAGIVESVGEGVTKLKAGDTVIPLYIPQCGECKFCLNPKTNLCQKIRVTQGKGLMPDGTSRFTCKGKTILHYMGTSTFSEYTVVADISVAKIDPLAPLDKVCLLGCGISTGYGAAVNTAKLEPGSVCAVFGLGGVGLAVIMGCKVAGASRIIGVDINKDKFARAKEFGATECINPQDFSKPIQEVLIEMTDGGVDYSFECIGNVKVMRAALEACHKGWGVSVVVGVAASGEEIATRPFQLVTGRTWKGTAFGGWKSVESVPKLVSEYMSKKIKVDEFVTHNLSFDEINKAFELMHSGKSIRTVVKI

Row | SMILES | IC50 [nM]
5 | O=C(O)c1ccc(-c2ccc3cc(O)ccc3c2)c(F)c1 [Example 2, 3-fluoro-4-(6-hydroxynaphthalen-2-yl)benzoic acid] | < 50
6 | CN(C)c1cc(C(=O)O)ccc1-c1ccc2cc(O)ccc2c1 [Example 5, 3-(dimethylamino)-4-(6-hydroxynaphthalen-2-yl)benzoic acid] | < 100
7 | N#Cc1cc(C(=O)O)ccc1-c1ccc2cc(O)ccc2c1 [Example 6, 3-cyano-4-(6-hydroxynaphthalen-2-yl)benzoic acid] | < 50
8 | O=C(O)c1ccc(-c2ccc3cc(O)ccc3c2Br)cc1 [Example 12, 4-(1-bromo-6-hydroxynaphthalen-2-yl)benzoic acid] | < 50
9 | O=C(O)c1ccc(-c2cc3ccc(O)cc3cc2F)c(Cl)c1 [Example 21, 3-chloro-4-(3-fluoro-6-hydroxynaphthalen-2-yl)benzoic acid] | < 50
10 | O=C(O)c1ccc(-c2cc3ccc(O)cc3cc2F)cc1 [Example 23, 4-(3-fluoro-6-hydroxynaphthalen-2-yl)benzoic acid] | < 50
11 | Cc1cc2cc(O)ccc2cc1-c1ccc(C(=O)O)cc1 [Example 26, 4-(6-hydroxy-3-methylnaphthalen-2-yl)benzoic acid] | < 100
12 | N#Cc1c(-c2ccc(C(=O)O)cc2)ccc2c(F)c(O)ccc12 [Example 27, 4-(1-cyano-5-fluoro-6-hydroxynaphthalen-2-yl)benzoic acid] | < 50
13 | Cc1cc(C(=O)O)ccc1-c1ccc2c(F)c(O)ccc2c1 [Example 32, 4-(5-fluoro-6-hydroxynaphthalen-2-yl)-3-methylbenzoic acid] | < 50

Second part, the compound after the results:

Row | IC50 [nM] | SMILES
14 | < 100 | COc1cc(C(=O)O)ccc1-c1ccc2cc(O)ccc2c1 [Example 3, 4-(6-hydroxynaphthalen-2-yl)-3-methoxybenzoic acid]
15 | < 50 | N#Cc1c(-c2ccc(C(=O)O)cc2)ccc2cc(O)ccc12 [Example 15, 4-(1-cyano-6-hydroxynaphthalen-2-yl)benzoic acid]
16 | < 50 | O=C(O)c1ccc(-c2ccc3cc(O)ccc3c2Cl)cc1 [Example 17, 4-(1-chloro-6-hydroxynaphthalen-2-yl)benzoic acid]
17 | < 100 | Oc1ccc2cc(-c3ccc(-c4nnn[nH]4)cc3)ccc2c1 [Example 18, 6-(4-(1H-tetrazol-5-yl)phenyl)naphthalen-2-ol]
18 | < 100 | O=C(O)c1ccc(-c2ccc3cc(O)ccc3c2)c(C(F)(F)F)c1 [Example 20, 4-(6-hydroxynaphthalen-2-yl)-3-(trifluoromethyl)benzoic acid]
19 | < 50 | O=C(O)c1ccc(-c2cc3ccc(O)cc3cc2Cl)cc1 [Example 22, 4-(3-chloro-6-hydroxynaphthalen-2-yl)benzoic acid]
20 | < 100 | COc1c(-c2ccc(C(=O)O)cc2)ccc2cc(O)ccc12 [Example 24, 4-(6-hydroxy-1-methoxynaphthalen-2-yl)benzoic acid]
21 | < 50 | O=C(O)c1ccc(-c2ccc3cc(O)ccc3c2F)cc1 [Example 25, 4-(1-fluoro-6-hydroxynaphthalen-2-yl)benzoic acid]
22 | < 50 | N#Cc1c(-c2ccc(C(=O)O)cc2F)ccc2cc(O)ccc12 [Example 28, 4-(1-cyano-6-hydroxynaphthalen-2-yl)-3-fluorobenzoic acid]
23 | < 50 | O=C(O)c1ccc(-c2ccc3c(F)c(O)ccc3c2)c(Cl)c1 [Example 29, 3-chloro-4-(5-fluoro-6-hydroxynaphthalen-2-yl)benzoic acid]
24 | < 50 | O=C(O)c1ccc(-c2ccc3c(F)c(O)ccc3c2)cc1 [Example 30, 4-(5-fluoro-6-hydroxynaphthalen-2-yl)benzoic acid]
25 | < 50 | O=C(O)c1ccc(-c2ccc3c(F)c(O)ccc3c2)c(F)c1 [Example 31, 3-fluoro-4-(5-fluoro-6-hydroxynaphthalen-2-yl)benzoic acid]
26 | < 100 | O=C(O)c1ccc(-c2ccc3cc(O)ccc3c2)cc1 [Example 33, 4-(6-hydroxynaphthalen-2-yl)benzoic acid]
